Patent publication US10590094B2, “Aminothiazole derivatives useful as antiviral agents” (Innovative Molecules GmbH, priority 2016, dated 2020)
≈ marks a conversion by molar mass, not a printed value. Where “and” joins values, the source holds several entries; their conditions need not be identical. Equal values may be shown once.

Assays:
HSV-1 ACV resistant = experiment: activity selectivity assay, ACV resistant HSV-1; format: cell-based, Herpes simplex virus; conditions: Human alphaherpesvirus 1, read-out: IC50 (HSV-1 ACV resistant)
Procedure: (§1) HSV (HSV-1 Walki, HSV-1F, HSV-2 MS, HSV clinical isolates and HSV resistant strains) was cultivated on Vero cells (ATCC CCL-81) under the following conditions: The cells were grown in M199 medium (5% foetal calf serum, 2 mM glutamine, 100 IU/mL penicillin, 100 μg/mL streptomycin) in cell culture bottles at 37° C. and 5% CO2. The cells were splitted twice per week (1:4). For the infection, the medium was removed, the cells were washed with Hank's solution, detached using 0.05% trypsin, 0.02% EDTA and incubacted at a density of 4×10^5 cells/mL under the above-mentioned conditions for 24 h. The medium was removed and the virus solution was added at an m.o.i of <0.05 in a volume of 2 mL per 175 cm^2 surface. The infected cells were incubated at 37° C., 5% CO2 for 1 h and then the medium was made up to a volume of 50 mL per 175 cm^2 bottle. […] The virus was released by freezing (−80° C.) and thawing (37° C.) the infected cultures twice. Cell debris was removed by centrifugation (300 g, 10 min, 4° C.) and the supernatant was frozen in aliquots at −80° C.
(§2) The antiviral action was determined using a patented (DE10235967 and WO2004/015416) and subsequently published activity selectivity assay (G. Kleymann et al. J. Biomol. Screen. 2004; 9:578) in 96- or 384-well mictrotitre plates using various cell lines of neuronal, lymphoid and epithelial origin, such as, for example, Vero (african green monkey kidney cells), MEF (murine embryonal fibroblasts), HELF (human embryonal fibroblasts), NT2 (human neuronal cell line) or Jurkat (human lymphoid T-cell line). The relevant experimental details of the above mentioned patent and publication to evaluate the antiviral activity of the invention (disclosed compounds) are described below.
(§3) The effect of the substances on the spreading of the cytopathogenic effect was determined in comparison to the reference compound acyclovir-sodium (Zovirax™), a clinically approved anti-herpes chemotherapeutic.
(§4) The compounds (50 mM stock solution dissolved in DMSO) are examined on microtitre plates (for example 96-well flat bottom cell culture plates) at a final concentration of 250 to 0.5 μM or, in case of potent antiviral compounds, 250 to 0.5 nM in 2 to 4 replications (4 to 2 substances per plate). Also examined are toxic and cytostatic effects or precipitation of the compounds. After an appropriate dilution of the compounds (1:2) on the microtitre plate in the appropriate medium (100 μL), a suspension of cells (50 μL, 1×10^4 cells per well), such as, for example of Vero cells in M199 (medium 199 with 5% foetal calf serum, 2 mM glutamine and optionally 100 IU/ml penicillin and 100 μg/ml streptomycin) or of MEF or HELF cells in EMEM (Eagle's Minimum Essential Medium with 10% foetal calf serum, 2 mM glutamine and optionally 100 IU/mL penicillin and 100 μg/mL streptomycin), or of NT2- and Jurkat cells in DMEM (([…] glucose plus pyridoxin) with 10% foetal calf serum, 2 mM glutamine, 1 mM sodium pyruvate, non-essential amino acids and optionally 100 IU/mL penicillin and 100 μg/mL streptomycin) is added to each well and the cells in the relevant wells are infected with the appropriate amount of virus (HSV-1 or HSV-2 having an m.o.i (multiplicity of infection) of 0.0025 for Vero, HELF and MEF cells and an m.o.i. of 0.1 for NT2 and Jurkat cells). The plates are then incubated at 37° C. in a cell CO2 incubator (5% CO2) for several days. After this time, the cell lawn of, for example, Vero cells in the substance-free virus controls, starting from 25 infections centres, is completely destroyed or lysed by the cytopathogenic effect (CPE) of the Herpes viruses (100% CPE). The plates are initially evaluated visually using a microscope and then analysed using a fluorescent dye. To this end, the cell supernatant of all wells of the MTP is aspirated and the wells are filled with 250 μL PBS (phosphate buffered saline) wash solution. […]

HSV-1 [1] = experiment: activity selectivity assay, HSV-1 infected Vero cells (cytopathogenic effect, fluorescein diacetate readout); format: cell-based, Herpes simplex virus; conditions: Human alphaherpesvirus 1
Procedure: as §1, §2, §3, §4

HSV-2 = experiment: activity selectivity assay, HSV-2 infected Vero cells; format: cell-based, Herpes simplex virus; conditions: Human alphaherpesvirus 2
Procedure: as §1, §2, §3, §4

[2] = pharmacokinetics in male mice strain C57BL/6J; format: in vivo; conditions: mouse
Procedure: Pharmcokinetic parameters were determined for Example 3 in male mice strain C57BL/6J at an intraveneous (i.v.) dose of 5 mg/kg (5% DMSO in heterologous plasma, 2.5 ml/kg) and an oral dose (p.o) of 10 mg/kg (DMSO/0.5% HPMC (5:95), 5 ml/kg). […] Significant concentrations in the brain of treated mice (2-3 μM, 1000 ng compound/g brain) were detected 6 h post administration at an oral dose of 10 mg/kg.

HSV-1 [3] = experiment: HSV-1 intranasal infection mouse model, survival; format: in vivo; conditions: Human alphaherpesvirus 1, inhaled or nasal, 120 h; female BALB/ABom mice, intranasal HSV-1, treatment for 5 days; read-out: ED50 (dose at which 50% of the infected animals survive)
Procedure: Animal experiments were performed according to patent WO2001/047904 or subsequent publications (U. A. K. Betz et al. Antimicrob. Agents Chemother. 2002; 46:1766 or G. Kleymann et al. Nat. Med. 2002; 8:392). The relevant experimental details of the above mentioned patent and publication to evaluate the antiviral activity of the invention (disclosed compounds) in-vivo (animal models) are described below.
6 week-old female mice, BALB/ABom strain were obtained from a commercial breeder.
The animals were anaesthetized with Et2O in a sealed glass vessel. 50 μL of a dilution of the virus stock (infection dose 5×10^4 PFU (Plaque forming units)) were introduced into the nose of the anaesthetized animals using a pipette. In 90 to 100% of the animals, this infection dose causes death by generalized infection with prominent respiratory and central-nervous symptoms on average after 5 to 8 days.
6 hours after infection animals were treated with doses of 0.1-150 mg/kg of body mass, 3 times per day at 7 am, 2 pm and 7 pm (tid) or 2 times per day at 7 am and 7 pm (bid) or once daily at 1 pm (od) for a period of 5 days. […] After the last administration, the animals were monitored further and the time of death was determined.

Human Carboanhydrase II = Human Carboanhydrase II (Homo sapiens, UniProt P00918); experiment: carbonic anhydrase activity assay (pH indicator method); format: biochemical
Procedure: Carbonic anhydrase II activity and its respective inhibition was performed according to R. Iyer et al. J. Biomol. Screen.
A protocol for determination of the carbonic anhydrase enymatic activity at rt using the pH indicator method is described below:
1 μL inhibitor (50 mM stock solution in DMSO) is diluted to a final test concentration ranging from 100 μM down to 1 nM (or 1 μL water in controls) and incubated for 2 min with 0.5 to 2 EU human […] (180 U/mg) in 400 μL water and 200 μL phenol red indicator solution (20 mg/L). An enzymactic unit (EU) is defined as an amount which doubles the non catalyzed rate. […] The time to colour change (pH 7.2) is determined with a microchronometer or stop watch.
The percentage of inhibition is calculated as described below: (time to color change without enzyme time to color change with enzyme and inhibitor)/(time to color change without enzyme time to color change with enzyme).

[4] = aqueous solubility (PBS, pH 7.4), shake flask; format: physicochemical
Procedure: The aqueous solubility (PBS, pH 7.4) was determined at Eurofins, Cerep, Panlabs according to C. A. Lipinski et al. Adv. Drug Del. Rev. 1997, 46:3. Measurement of the aqueous solubility was performed according to Lipinski, C. A. et al. (1997), Adv. Drug Del. Rev., 46: 3-26. The relevant information from the literature is described below. […] In addition, chromatographic purity (%) was defined as the peak area of the principal peak relative to the total integrated peak area in the HPLC chromatogram of the calibration standard.

Row | SMILES | IC50 (HSV-1 ACV resistant) | IC50 (HSV-1 [1]) | IC50 (HSV-2) | other results
1 | Nc1nc2c(ncn2COCCO)c(=O)[nH]1 [Acyclovir, reference compound] | > 25000 nM | 500 to 3000 nM | 500 to 3000 nM | –
2 | Cc1nc(N(C)C(=O)Cc2ccc(-c3cc(F)ccc3F)cc2)sc1S(=N)(N)=O (stereo not shown) [Example 3, 2-(2′,5′-Difluoro-[1,1′-biphenyl]-4-yl)-N-methyl-N-(4-methyl-5-sulfamimidoylthiazol-2-yl)acetamide] | 5 to 50 nM | 5 to 50 nM | 5 to 50 nM | concentration at 6 h ([2]; male, C57BL/6J, brain, mice, 6 h post administration, oral dose of 10 mg/kg): 2 µM to 3 µM and 1000 ng/g; bioavailability ([2]; plasma, oral, male C57BL/6J mice, 10 mg/kg p.o. vs 5 mg/kg i.v.): 94%; Tmax ([2]; plasma, po, male C57BL/6J mice, 10 mg/kg p.o.): 1 h; Cmax ([2]; plasma, po, male C57BL/6J mice, 10 mg/kg p.o., read-out: maximal plasma concentration (cmax)): 13.9 µM; half-life ([2]; plasma, male C57BL/6J mice, oral dose of 10 mg/kg, read-out: terminal half life (converted)): ~210 min; ED50 (HSV-1 [3]): < 10 mg/kg; IC50 (Human Carboanhydrase II): > 5 µM; carboanhydrase inhibition (IC50) (Human Carboanhydrase II; text statement before Table 2): no or reduced carbonic anhydrase inhibition; solubility at 24 h ([4]; PBS buffer, aqueous buffer, kinetic from dmso stock, pH 7.4, shake flask, 24 h incubation, RT, read-out: Solubility [μM] (PBS, pH 7.4, 200 μM Test concentration)): 16.2 µM (≈ 7.07 µg/mL); solubility in comparison to Example 87 (WO2001/047904) ([4]; pH 7.4): significantly increased solubility (at least one order of magnitude)
3 | Cc1nc(N(C)C(=O)Cc2ccc(-c3cc(F)ccc3F)cc2)sc1S(C)(=N)=O (stereo not shown) [Example 7, 2-(2′,5′-Difluoro-[1,1′-biphenyl]-4-yl)-N-methyl-N-(4-methyl-5-(S-methylsulfonimidoyl)thiazol-2-yl)acetamide] | 25 to 100 nM | 25 to 100 nM | 25 to 100 nM | –
4 | CSc1sc(N(C)C(=O)Cc2ccc(-c3cc(F)ccc3F)cc2)nc1C [Example P4b, 2-(2′,5′-Difluoro-[1,1′-biphenyl]-4-yl)-N-methyl-N-(4-methyl-5-(methylthio)thiazol-2-yl)acetamide] | 2000 to 6000 nM | 2000 to 6000 nM | 2000 to 6000 nM | –
5 | Cc1nc(N(C)C(=O)Cc2ccc(-c3cc(F)ccc3F)cc2)sc1[S+](C)[O-] (stereo not shown) [Example 4, 2-(2′,5′-Difluoro-[1,1′-biphenyl]-4-yl)-N-methyl-N-(4-methyl-5-(methylsulfinyl)thiazol-2-yl)acetamide] | 100 to 500 nM | 100 to 500 nM | 100 to 500 nM | –
6 | Cc1nc(N(C)C(=O)Cc2ccc(-c3cc(F)ccc3F)cc2)sc1/S(C)=N\C#N (stereo not shown) [Example 13, N-[5-(N-Cyano-S-methyl-sulfinimidoyl)-4-methyl-thiazol-2-yl]-2-[4-(2,5-difluorophenyl)phenyl]-N-methyl-acetamide] | 300 to 3000 nM | 300 to 3000 nM | 300 to 3000 nM | –
7 | Cc1nc(N(C)C(=O)Cc2ccc(-c3cc(F)ccc3F)cc2)sc1S(=O)(=O)NC#N [Example 12, N-(5-(N-Cyanosulfamoyl)-4-methylthiazol-2-yl)-2-(2′,5′-difluoro-[1,1-biphenyl]-4-yl)-N-methylacetamide] | 100 to 1000 nM | 100 to 1000 nM | 100 to 1000 nM | –
8 | Cc1nc(N(C)C(=O)Cc2ccc(-c3cc(F)ccc3F)cc2)sc1S(C)(=O)=NC#N (stereo not shown) [Example 14, N-[5-(N-Cyano-S-methyl-sulfonimidoyl)-4-methyl-thiazol-2-yl]-2-[4-(2,5-difluorophenyl)phenyl]-N-methyl-acetamide] | 1000 to 5000 nM | 1000 to 5000 nM | 1000 to 5000 nM | –
9 | Cc1nc(N(C)C(=O)Cc2ccc(-c3cc(F)ccc3F)cc2)sc1P(=O)(O)O [Example 9, (2-(2-(2′,5′-Difluoro-[1,1′-biphenyl]-4-yl)-N-methylacetamido)-4-methylthiazol-5-yl)phosphonic acid] | 25000 to 100000 nM | 25000 to 100000 nM | 25000 to 100000 nM | –
10 | Cc1nc(N(C)C(=O)Cc2ccc(-c3ccccn3)cc2)sc1S(=N)(N)=O (stereo not shown) [Example 3-1, N-methyl-N-(4-methyl-5-sulfamimdoylthiazol-2-yl)-2-(4-(pyridin-2-yl)phenyl)acetamide] | 5 to 50 nM | 5 to 50 nM | 5 to 50 nM | –
